Reference: ChEMBL document CHEMBL5137013 (Eur J Med Chem, 2022)
Active and inactive are the calls of the source. The calls are words filed in the database; no cut-off is given here.

How the values were obtained:
MDA-MB-231 = assay: Cytotoxicity against human MDA-MB-231 cells assessed as reduction in cell viability measured after 24 hrs by MTT assay; type: functional, cell-based; conditions: MDA-MB-231, 24 h
MCF7 = assay: Cytotoxicity against human MCF7 cells assessed as reduction in cell viability measured after 24 hrs by MTT assay; conditions: MCF7, 24 h
A549 = assay: Cytotoxicity against human A549 cells assessed as reduction in cell viability measured after 24 hrs by MTT assay; conditions: A549, 24 h
HT-29 [1] = assay: Cytotoxicity against human HT-29 cells assessed as reduction in cell viability measured after 24 hrs by MTT assay; type: functional, cell-based; conditions: HT-29, 24 h
HeLa = assay: Cytotoxicity against human HeLa cells assessed as reduction in cell viability measured after 24 hrs by MTT assay; type: functional, cell-based
[2] = Resistance index, ratio of IC50 for human MCF7/TxR cells to IC50 for human MCF7 cells; type: functional
[3] = Resistance index, ratio of IC50 for human A549/TxR cells to IC50 for human A549 cells; type: functional
[4] = Inhibition of porcine brain tubulin polymerization measured at 1 min interval for 60 mins by fluorescence assay; design: species or system Sus scrofa
[5] = Cytotoxicity against human A549/TxR cells assessed as reduction in cell viability measured after 24 hrs by MTT assay; type: functional, cell-based
HT-29 [6] = assay: Antitumor activity against human HT-29 cells xenografted in BALB/c nude mouse assessed as reduction in tumor weight at 20 mg/kg, ip administered as 2 days interval for 3 weeks and measured 3 weeks post-initial dosing relative to control; type: functional; design: scale not given: the % may be the effect or the level left
[7] = Cytotoxicity against human MCF7/TxR cells assessed as reduction in cell viability measured after 24 hrs by MTT assay; type: functional, cell-based
HT-29 [8] = assay: Antitumor activity against human HT-29 cells xenografted in BALB/c nude mouse assessed as reduction in tumor weight at 10 mg/kg, ip administered as 2 days interval for 3 weeks and measured 3 weeks post-initial dosing relative to control; type: functional; design: scale not given: the % may be the effect or the level left
Sus scrofa = organism: Sus scrofa; assay: […] of porcine brain tubulin polymerization at 5 uM measured at 1 min interval for 60 mins by fluorescence assay
[9] = Cmax in Sprague-Dawley rat at 10 mg/kg, iv by HPLC-MS/MS analysis; type: ADME, organism-based; design: dose 10 mg/kg, route iv; conditions: in vivo
[10] = Half-life in Sprague-Dawley rat at 10 mg/kg, iv by HPLC-MS/MS analysis; type: ADME, organism-based; conditions: in vivo
[11] = AUC in Sprague-Dawley rat at 10 mg/kg, iv by HPLC-MS/MS analysis; type: ADME, organism-based; design: dose 10 mg/kg, route iv; conditions: in vivo
[12] = Clearance in Sprague-Dawley rat at 10 mg/kg, iv by HPLC-MS/MS analysis; type: ADME, organism-based; conditions: in vivo
[13] = Tmax in Sprague-Dawley rat at 10 mg/kg, iv by HPLC-MS/MS analysis; type: ADME, organism-based; conditions: in vivo

| SMILES | IC50 (MDA-MB-231) [µM] | IC50 (MCF7) [µM] | IC50 (A549) [µM] | IC50 (HT-29 [1]) [µM] | IC50 (HeLa) [µM] | also measured |
| --- | --- | --- | --- | --- | --- | --- |
| COC(=O)c1cc2c(cc1Nc1cc(OC)c(OC)c(OC)c1)OCO2 | 0.74 | 0.98 | 2.67 | 0.38 | 0.39 |  |
| COC(=O)c1cc2c(cc1NC(=O)c1cc(F)c(OC)c(F)c1)OCCO2 | > 20 | > 20 | > 20 | > 20 | > 20 |  |
| COc1ccc(Nc2cc3c(cc2C(=O)NN)OCCO3)cc1 | > 20 | > 20 | > 20 | > 20 | > 20 |  |
| COc1ccc(/C=C\c2cc(OC)c(OC)c(OC)c2)cc1O [COMBRETASTATIN A4] | 0.013 | 0.009 | 0.046 | 0.43 | 0.007 | Ratio IC50 [2]: 1.8; Ratio IC50 [3]: 2.1; IC50 [4]: 1.21 µM; IC50 [5]: 0.096 µM; Activity (HT-29 [6]): 17.4%; IC50 [7]: 0.017 µM |
| COC(=O)c1cc2c(cc1Nc1ccc(OC)cc1)OCCO2 | > 20 | > 20 | > 20 | > 20 | > 20 |  |
| COC(=O)c1cc2c(cc1Nc1cc(F)c(OC)c(F)c1)OCO2 | > 20 | > 20 | > 20 | 8.53 | 10.6 |  |
| CC(=O)O[C@H]1C(=O)[C@@]2(C)[C@H]([C@H](OC(=O)c3ccccc3)[C@]3(O)C[C@H](OC(=O)[C@H](O)[C@@H](NC(=O)c4ccccc4)c4ccccc4)C(C)=C1C3(C)C)[C@]1(OC(C)=O)CO[C@@H]1C[C@@H]2O [PACLITAXEL] | 0.007 |  |  | 0.011 | 0.039 | Activity (HT-29 [8]): 77.1%; Activity (Sus scrofa): Active; IC50 [5]: 2.92 µM; IC50 [7]: 8.35 µM |
| COC(=O)c1cc2c(cc1Nc1cc(F)c(OC)c(F)c1)OCCO2 | 4.1 | > 20 | 1.55 | 4.47 | 5.22 |  |
| COc1cc(Nc2cc3c(cc2C(=O)O)OCO3)cc(OC)c1OC | 2.3 | 15.1 | 5.42 | 1.41 | 5.18 |  |
| COc1cc2c(c(OC)c1OC)-c1ccc(OC)c(=O)cc1[C@@H](NC(C)=O)CC2 [COLCHICINE] | 0.097 |  | 0.031 | 0.25 | 0.008 |  |
| COc1c(Br)cc(Nc2cc3c(cc2C(=O)NN)OCCO3)cc1Br | 0.47 | 0.44 | 1.14 | 0.23 | 0.24 |  |
| NNC(=O)c1cc2c(cc1Nc1ccc3c(c1)OCO3)OCCO2 | > 20 | > 20 | > 20 | 1.02 | 3.54 |  |
| COc1cc(Nc2cc3c(cc2C(=O)NN)OCCO3)cc(OC)c1OC | 0.36 | 0.37 | 0.74 | 0.13 | 0.32 |  |
| COc1cc([C@@H]2c3cc4c(cc3[C@H](O)[C@H]3COC(=O)[C@H]23)OCO4)cc(OC)c1OC [PODOFILOX] | 0.017 | 0.039 | 0.059 | 0.023 | 0.044 | Ratio IC50 [2]: 1.1; Cmax [9]: 3530 ng/mL; t1/2 [10]: 12.6 min; AUC [11]: 2950 µg/L.hr; CL [12]: 56.5 mL/min/kg; Ratio IC50 [3]: 1.2; IC50 [5]: 0.073 µM; Tmax [13]: 6 min; IC50 [7]: 0.043 µM |
| COc1cc(C(=O)Nc2cc3c(cc2C(=O)O)OCCO3)cc(OC)c1OC | > 20 | > 20 | > 20 | > 20 | > 20 |  |
| COc1c(F)cc(Nc2cc3c(cc2C(=O)NN)OCCO3)cc1F | 5.92 | 15.4 | 1.2 | 1.31 | 2.56 |  |
| COc1ccc(Nc2cc3c(cc2C(N)=O)OCCO3)cc1OC | > 20 | 13.1 | 0.91 | 0.85 | 5.29 |  |

| SMILES | IC50 (MDA-MB-231) [µM] | IC50 (MCF7) [µM] | IC50 (A549) [µM] | IC50 (HT-29 [1]) [µM] | IC50 (HeLa) [µM] | also measured |
| --- | --- | --- | --- | --- | --- | --- |
| COC(=O)c1cc2c(cc1Nc1cc(Br)c(OC)c(Br)c1)OCCO2 | 6.46 | 3.37 | 10.1 | 1.47 | 2.49 |  |
| COc1c(F)cc(C(=O)Nc2cc3c(cc2C(=O)NN)OCCO3)cc1F | > 20 | > 20 | > 20 | > 20 | > 20 |  |
| COC(=O)c1cc2c(cc1Nc1ccc3c(c1)OCO3)OCCO2 | 3.13 | 11.2 | > 20 | 4.61 | 5.55 |  |
| COc1c(F)cc(Nc2cc3c(cc2C(=O)NN)OCO3)cc1F | > 20 | > 20 | > 20 | 3.65 | 5.88 |  |
| COC(=O)c1cc2c(cc1NC(=O)c1cc(OC)c(OC)c(OC)c1)OCCO2 | > 20 | > 20 | > 20 | > 20 | > 20 |  |
| COC(=O)c1cc(OC)c(OC)cc1Nc1cc(OC)c(OC)c(OC)c1 | > 20 | > 20 | > 20 | > 20 | > 20 |  |
| COc1cc(Nc2cc3c(cc2C(=O)O)OCCO3)cc(OC)c1OC | 6.79 | 6.76 | 11.5 | 2.16 | 2.91 |  |
| COc1cc(C(=O)Nc2cc3c(cc2C(=O)NN)OCCO3)cc(OC)c1OC | > 20 | > 20 | > 20 | > 20 | > 20 |  |
| COc1c(F)cc(Nc2cc3c(cc2C(N)=O)OCCO3)cc1F | 1.7 | 12.2 | 2.21 | 0.86 | 6.12 |  |
| COc1cc(Nc2cc3c(cc2C(=O)NN)OCO3)cc(OC)c1OC | 1.36 | 1.97 | 1.4 | 0.53 | 1.19 |  |
| COC(=O)c1cc2c(cc1NC(=O)c1cc(Br)c(OC)c(Br)c1)OCCO2 | > 20 | > 20 | > 20 | > 20 | > 20 |  |
| COC(=O)c1cc2c(cc1Nc1ccc3c(c1)OCCO3)OCCO2 | 16.6 | 8.6 | 6.36 | 4.64 | 12.8 |  |
| COC(=O)c1cc(OC)c(OC)cc1Nc1cc(Br)c(OC)c(Br)c1 | > 20 | > 20 | > 20 | > 20 | > 20 |  |
| COC(=O)c1cc2c(cc1Nc1ccc(OC)c(OC)c1)OCCO2 | 5.46 | 11.3 | 1 | 0.55 | 2.11 |  |
| COC(=O)c1cc2c(cc1Nc1cc(Br)c(OC)c(Br)c1)OCO2 | 11.7 | 6.46 | 2.64 | 2.02 | 3.4 |  |
| COc1c(Br)cc(Nc2cc3c(cc2C(=O)O)OCO3)cc1Br | 5.6 | 16 | 15.9 | 3.13 | 6.9 |  |
